Counter-ions that a name gives are not always drawn. Like-named read-outs stand apart in the source and are kept apart here.
Assays:
[1] = tested on: cultured human mast cells (CHMC), ionomycin-induced degranulation; test: CHMC low cell density ionomycin activation: tryptase assay; format: cell-based; conditions: ionomycin activation, read-out: LD Tryptase, CHMC, Iono, 3pt
[2] = tested on: cultured human mast cells (CHMC), IgE-induced degranulation; test: CHMC low cell density IgE activation: tryptase assay; format: cell-based
Outline: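 Tryptase release read fluorogenically (30 min, room temperature) from supernatants of anti-IgE-challenged cultured human mucosal mast cells derived from umbilical cord CD34+ cells, at low density of 1000–1500 cells/well.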

[3] = low cell density CHMC, 3pt, read-out: LD Tryptase, CHMC, IgE, 3pt
[4] = low cell density CHMC, 8pt, read-out: LD Tryptase, CHMC, IgE, 8pt
[5] = low cell density CHMC, 3-point, read-out: LD Tryptase, CHMC, IgE, 3pt
[6] = low cell density CHMC, 8-point, read-out: LD Tryptase, CHMC, IgE, 8pt
[7] = Homo sapiens, Mast cell, low cell density CHMC, 3pt, read-out: LD Tryptase, CHMC, IgE, 3pt
[8] = Homo sapiens, Mast cell, low cell density CHMC, 8pt, read-out: LD Tryptase, CHMC, IgE, 8pt
[9] = CHMC low cell density, 8pt, read-out: LD Tryptase, CHMC, IgE, 8pt

COc1cc(C)c(Nc2ncc(F)c(Nc3ccc4c(c3)NC(C)(C)CO4)n2)cc1Cl [Compound 216, N2-(3-Chloro-4-methoxy-6-methylphenyl)-N4-(3,4-dihydro-3,3-dimethyl-2H,4H-benz[1,4]oxazin-6-yl)-5-fluoro-2,4-pyrimidinediamine]
IC50 ([1]; low cell density CHMC, 3pt): > 10 µM | IC50 [2, 3]: < 10 µM | IC50 [2, 4]: < 10 µM

Fc1cnc(Nc2cccc(-c3ncco3)c2)nc1Nc1ccc2c(c1)NCCO2 [Compound 217, N4-(3,4-Dihydro-2H,4H-benz[1,4]oxazin-6-yl)-5-fluoro-N2-[3-(oxazol-2-yl)phenyl]-2,4-pyrimidinediamine]
IC50 ([1]; low cell density CHMC, 3pt): > 10 µM | IC50 [2, 3]: < 10 µM | IC50 [2, 4]: < 10 µM

CC1(C)COc2ccc(Nc3nc(Nc4cccc(-c5ncco5)c4)ncc3F)cc2N1 [Compound 218, N4-(3,4-Dihydro-3,3-dimethyl-2H,4H-benz[1,4]oxazin-6-yl)-5-fluoro-N2-[3-(oxazol-2-yl)phenyl]-2,4-pyrimidinediamine]
IC50 ([1]; low cell density CHMC, 3pt): > 10 µM | IC50 [2, 3]: < 10 µM | IC50 [2, 4]: < 10 µM

CNC(=O)COc1cccc(Nc2ncc(F)c(Nc3ccc4c(n3)NC(=O)C(C)(C)O4)n2)c1 [Compound 992, N4-(2,2-Dimethyl-3-oxo-4H-5-pyrid[1,4]oxazin-6-yl)-5-fluoro-N2-[3-(N-methylamino)carbonylmethyleneoxyphenyl]-2,4-pyrimidinediamine (+)-Camphorsulfonic Acid Salt]
IC50 ([1]; CHMC low cell density, 3pt): > 10 µM

Cn1ncc2ccc(Nc3ncc(F)c(Nc4ccc5c(n4)NC(=O)C(C)(C)O5)n3)cc21 [Compound 1056, N4-(2,2-Dimethyl-3-oxo-4H-5-pyrid[1,4]oxazin-6-yl)-5-fluoro-N2-[1-methylindazol-6-yl]-2,4-pyrimidinediamine Hydrogen Chloride Salt]
IC50 ([1]; low cell density CHMC, 3-point): > 10 µM

COc1ccc(Nc2ncc(F)c(Nc3ccc4c(n3)NC(=O)[C@H](C)O4)n2)cc1Cl [Compound 1081, (S)—N2-(3-Chloro-4-methoxyphenyl)-5-fluoro-N4-(2-methyl-3-oxo-2H,4H-5-pyrid[1,4]oxazin-6-yl)-2,4-pyrimidinediamine]
IC50 [2, 5]: < 10 µM | IC50 [2, 6]: < 10 µM

COc1cc(Nc2ncc(F)c(Nc3ccc4c(n3)NC(=O)[C@H](C)O4)n2)cc(OC)c1OC [Compound 1082, (S)-5-Fluoro-N4-(2-methyl-3-oxo-2H,4H-5-pyrid[1,4]oxazin-6-yl)-N2-(3,4,5-trimethoxyphenyl)-2,4-pyrimidinediamine]
IC50 [2, 5]: < 10 µM | IC50 [2, 6]: < 10 µM

Cc1cc(C)cc(Nc2ncc(F)c(Nc3ccc4c(n3)NC(=O)[C@H](C)O4)n2)c1 [Compound 1084, (S)—N2-(3,5-Dimethylphenyl)-5-fluoro-N4-(2-methyl-3-oxo-2H,4H-5-pyrid[1,4]oxazin-6-yl)-2,4-pyrimidinediamine]
IC50 [2, 5]: > 10 µM | IC50 [2, 6]: < 10 µM

Fc1cnc(Nc2cccc(-c3cnco3)c2)nc1Nc1ccc2c(n1)NCCO2 [Compound 1132, N4-(3,4-Dihydro-2H,4H-5-pyrid[1,4]oxazin-6-yl)-5-fluoro-N2-[3-(oxazol-5-yl)phenyl]-2,4-pyrimidinediamine]
IC50 [2, 6]: < 10 µM

CC(=O)N1CCN(c2ccc(Nc3ncc(F)c(Nc4ccc5c(n4)NCCO5)n3)cc2)CC1 [Compound 1134, N2-[4-(4-Acetylpiperazino)phenyl]-N4-(3,4-dihydro-2H,4H-5-pyrid[1,4]oxazin-6-yl)-5-fluoro-2,4-pyrimidinediamine]
IC50 [2, 5]: < 10 µM | IC50 [2, 6]: < 10 µM

CCOC(=O)N1CCN(c2ccc(Nc3ncc(F)c(Nc4ccc5c(n4)NCCO5)n3)cc2)CC1 [Compound 1135, N4-(3,4-Dihydro-2H,4H-5-pyrid[1,4]oxazin-6-yl)-N2-[4-(4-ethoxycarbonylpiperazino)phenyl]-5-fluoro-2,4-pyrimidinediamine]
IC50 [2, 5]: < 10 µM | IC50 [2, 6]: < 10 µM

Fc1cnc(Nc2cccc(N3CCOCC3)c2)nc1Nc1ccc2c(n1)NCCO2 [Compound 1136, N4-(3,4-Dihydro-2H,4H-5-pyrid[1,4]oxazin-6-yl)-5-fluoro-N2-(3-morpholinophenyl)-2,4-pyrimidinediamine]
IC50 [2, 5]: < 10 µM | IC50 [2, 6]: < 10 µM

CC(=O)N1CCN(c2cccc(Nc3ncc(F)c(Nc4ccc5c(n4)NCCO5)n3)c2)CC1 [Compound 1137, N2-[3-(4-Acetylpiperazino)phenyl]-N4-(3,4-dihydro-2H,4H-5-pyrid[1,4]oxazin-6-yl)-5-fluoro-2,4-pyrimidinediamine]
IC50 [2, 5]: < 10 µM | IC50 [2, 6]: < 10 µM

CCOC(=O)N1CCN(c2cccc(Nc3ncc(F)c(Nc4ccc5c(n4)NCCO5)n3)c2)CC1 [Compound 1138, N4-(3,4-Dihydro-2H,4H-5-pyrid[1,4]oxazin-6-yl)-N2-[3-(4-ethoxycarbonylpiperazino)phenyl]-5-fluoro-2,4-pyrimidinediamine]
IC50 [2, 5]: < 10 µM | IC50 [2, 6]: < 10 µM

CN1CCN(c2ccc(Nc3ncc(F)c(Nc4ccc5c(n4)NCCO5)n3)cc2Cl)CC1 [Compound 1197, N2-[3-Chloro-4-(4-methylpiperazino)phenyl]-N4-(3,4-dihydro-2H,4H-5-pyrid[1,4]oxazin-6-yl)-5-fluoro-2,4-pyrimidinediamine]
IC50 [2, 3]: < 10 µM | IC50 [2, 4]: < 10 µM

Cc1cc(Nc2ncc(F)c(Nc3ccc4c(n3)NCCO4)n2)ccc1N1CCN(C)CC1 [Compound 1203, N4-(3,4-Dihydro-2H,4H-5-pyrid[1,4]oxazin-6-yl)-5-fluoro-N2-[3-methyl-4-(4-methylpiperazino)phenyl]-2,4-pyrimidinediamine]
IC50 [2, 3]: < 10 µM | IC50 [2, 4]: < 10 µM

C[C@@H]1Oc2ccc(Nc3nc(Nc4ccc(C(=O)N=CC(=O)O)cc4)ncc3F)cc2NC1=O [Compound 1264]
IC50 [2, 7]: > 10 µM

C[C@H]1Oc2ccc(Nc3nc(Nc4ccc(C(=O)N=CC(=O)O)cc4)ncc3F)cc2NC1=O [Compound 1267]
IC50 [2, 7]: > 10 µM

C[C@@H]1Oc2ccc(Nc3nc(NC4=CC=CC(=CNC(=O)OC(C)(C)C)C4)ncc3F)cc2NC1=O [Compound 1276]
IC50 [2, 7]: < 10 µM | IC50 [2, 8]: < 10 µM

C[C@@H]1Oc2ccc(Nc3nc(NC4=CC=CC(=CN)C4)ncc3F)cc2NC1=O [Compound 1279]
IC50 [2, 7]: < 10 µM | IC50 [2, 8]: < 10 µM

C[C@H]1Oc2ccc(Nc3nc(Nc4cccc(CN)c4)ncc3F)cc2NC1=O [Compound 1280]
IC50 [2, 3]: < 10 µM | IC50 [2, 4]: < 10 µM

(R)—N2-[3-(N-tert-Butoxycarbonylamino)methylenephenyl]-5-fluoro-N4-(2-methyl-3-oxo-2H,4H-benz[1,4]oxazin-6-yl) [Compound 1277]
IC50 [2, 3]: < 10 µM | IC50 [2, 4]: < 10 µM

(S)-5-Fluoro-[1-(2-hydroxymethyl)-2-trifluoromethylbenzimidazol-5-yl]-N4-(2-methyl-3-oxo-2H,4H-benz[1,4]oxazin-6-yl)-2,4-pyrimidinediamine [Compound 923]
IC50 [2, 9]: < 10 µM

N2-(2-Aminocarbonylphenyl)-N4-(2,2-dimethyl-3-oxo-4H-5-pyrid[1,4]oxazin-6-yl)-5-fluoro-2,4-pyrimidinediamine [Compound 1316]
IC50 [2, 3]: < 10 µM | IC50 [2, 4]: > 10 µM

N2-(4-Aminocarbonylphenyl)-N4-(2,2-dimethyl-3-oxo-4H-5-pyrid[1,4]oxazin-6-yl)-5-fluoro-2,4-pyrimidinediamine [Compound 1315]
IC50 [2, 3]: < 10 µM

N4-(2,2-Dimethyl-3-oxo-4H-5-pyrid[1,4]oxazin-6-yl)-5-fluoro-N2-(3-methoxycarbonylppyrid-2yl)-2,4-pyrimidinediamine [Compound 1314]
IC50 [2, 3]: < 10 µM

N4-(2,2-Dimethyl-3-oxo-4H-5-pyrid[1,4]oxazin-6-yl)-5-fluoro-N2-(4-methoxycarbonylphenyl)-2,4-pyrimidinediamine [Compound 1313]
IC50 [2, 3]: < 10 µM

N4-(2,2-Dimethyl-3-oxo-4H-5-pyrid[1,4]oxazin-6-yl)-5-fluoro-[1-(2-hydroxymethyl)-2-trifluoromethylbenzimidazol-5-yl]-2,4-pyrimidinediamine [Compound 924]
IC50 [2, 9]: < 10 µM

N4-(2,2-Dimethyl-3-oxo-4H-5-pyrid[1,4]oxazin-6-yl)-N2-(1-methyl-2-trifluoromethylbenzimidazol-5-yl)-2,4-pyrimidinediamine [Compound 915]
IC50 [2, 9]: < 10 µM

N4-(2,2-Dimethyl-3-oxo-4H-N4-oxo-5-pyrido[1,4]oxazin-6-yl)-5-fluoro-N2-(3,4,5-trimethoxyphenyl)-2,4-pyrimidinediamine [Compound 1340]
IC50 [2, 3]: < 10 µM | IC50 [2, 4]: < 10 µM

N4-(2,2-Dimethyl-3-oxo-4H-benz[1,4]oxazin-6-yl)-5-fluoro-N2-{1-methyl-2-[(methylsulfonyl)methyl]benzimidazol-5-yl}-2,4-pyrimidinediamine [Compound 967]
IC50 ([2]; CHMC low cell density, 3pt, read-out: LD Tryptase, CHMC, IgE, 3pt): < 10 µM | IC50 [2, 9]: < 10 µM

N4-(2,2-Dimethyl-3-oxo-4H-benz[1,4]oxazin-6-yl)-5-fluoro-[1-(2-hydroxymethyl)-2-trifluoromethylbenzimidazol-5-yl]-2,4-pyrimidinediamine [Compound 922]
IC50 [2, 9]: < 10 µM

N4-(2,2-Dimethyl-3-oxo-4H-benz[1,4]oxazin-6-yl)-N2-(1-methyl-2-trifluoromethylbenzimidazol-5-yl)-2,4-pyrimidinediamine [Compound 913]
IC50 [2, 9]: < 10 µM

N4-[benzoxathiazin-3(4H)-one-6-yl]2-chloro-5-fluoro-4-pyrimidinea mine [Compound 319]
IC50 [2, 3]: < 10 µM

From patent US7560466B2, “Methods of treating or preventing autoimmune diseases with 2,4-pyrimidinediamine compounds” (Rigel Pharmaceuticals, Inc., priority 2003, dated 2009)
